Experiment [1] addresses T1, Integrin alpha-IIb/beta-3 (Homo sapiens, UniProt P08514+P05106). Briefly: Inhibition of collagen-induced platelet aggregation.
Experiment [2] has as its target T1, Integrin alpha-IIb/beta-3. In words: Inhibition of arachidonic acid-induced platelet aggregation.
Experiment [3] deals with T1, Integrin alpha-IIb/beta-3. In words: Inhibition of thrombin-induced platelet aggregation at 50 uM.

Here are results for 9 compounds from BindingDB's records for doi:10.1021/jm00001a008 (R. W. Johnson Pharmaceutical Research Institute, 1995).

Where a name gives a salt, the structure may show the parent alone. Where only a bound is given, the exact number is not on record here.

T1 sequence (P05106 27-788 limits assumed): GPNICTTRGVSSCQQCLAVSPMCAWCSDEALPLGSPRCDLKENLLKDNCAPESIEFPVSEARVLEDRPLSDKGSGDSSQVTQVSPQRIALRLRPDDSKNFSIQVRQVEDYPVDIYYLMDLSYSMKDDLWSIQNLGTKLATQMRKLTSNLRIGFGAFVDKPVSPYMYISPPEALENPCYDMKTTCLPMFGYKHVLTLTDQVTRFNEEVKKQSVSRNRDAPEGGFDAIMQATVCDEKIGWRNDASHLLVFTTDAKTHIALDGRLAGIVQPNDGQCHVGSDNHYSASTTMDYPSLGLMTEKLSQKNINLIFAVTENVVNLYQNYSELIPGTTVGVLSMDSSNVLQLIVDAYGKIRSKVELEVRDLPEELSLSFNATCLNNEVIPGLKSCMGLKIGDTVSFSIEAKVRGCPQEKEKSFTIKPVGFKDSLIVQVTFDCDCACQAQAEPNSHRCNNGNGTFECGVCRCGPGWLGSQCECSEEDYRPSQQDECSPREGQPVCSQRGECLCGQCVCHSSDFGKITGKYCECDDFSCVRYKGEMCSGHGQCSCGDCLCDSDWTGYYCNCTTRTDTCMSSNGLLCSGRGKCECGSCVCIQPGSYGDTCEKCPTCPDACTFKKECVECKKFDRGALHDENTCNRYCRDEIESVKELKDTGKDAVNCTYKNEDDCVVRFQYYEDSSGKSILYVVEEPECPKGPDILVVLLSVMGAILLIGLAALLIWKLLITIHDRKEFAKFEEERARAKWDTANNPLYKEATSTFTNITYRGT
T1 sequence (P08514 32-887 limits assumed): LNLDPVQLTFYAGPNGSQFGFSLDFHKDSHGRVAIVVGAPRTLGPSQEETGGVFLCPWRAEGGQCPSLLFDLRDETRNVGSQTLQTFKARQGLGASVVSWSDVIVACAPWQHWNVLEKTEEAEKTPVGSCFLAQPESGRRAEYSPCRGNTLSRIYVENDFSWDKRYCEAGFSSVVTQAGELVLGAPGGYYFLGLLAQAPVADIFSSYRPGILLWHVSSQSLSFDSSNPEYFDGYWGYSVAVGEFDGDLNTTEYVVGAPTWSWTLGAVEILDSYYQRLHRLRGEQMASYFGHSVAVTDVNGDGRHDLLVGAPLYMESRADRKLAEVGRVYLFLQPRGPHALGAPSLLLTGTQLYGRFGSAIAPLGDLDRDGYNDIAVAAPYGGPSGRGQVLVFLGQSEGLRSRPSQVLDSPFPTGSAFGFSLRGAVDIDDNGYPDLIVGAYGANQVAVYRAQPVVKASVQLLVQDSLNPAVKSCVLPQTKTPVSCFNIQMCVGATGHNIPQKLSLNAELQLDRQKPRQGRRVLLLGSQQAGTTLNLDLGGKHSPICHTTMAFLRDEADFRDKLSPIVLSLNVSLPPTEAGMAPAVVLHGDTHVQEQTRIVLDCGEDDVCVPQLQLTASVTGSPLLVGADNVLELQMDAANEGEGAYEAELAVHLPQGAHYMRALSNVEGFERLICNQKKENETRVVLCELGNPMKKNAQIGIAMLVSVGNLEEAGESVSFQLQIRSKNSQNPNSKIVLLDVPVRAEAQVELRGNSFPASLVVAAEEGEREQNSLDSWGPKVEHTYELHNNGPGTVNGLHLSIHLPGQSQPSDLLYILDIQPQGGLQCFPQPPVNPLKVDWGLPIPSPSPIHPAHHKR
T1 sequence (P08514 891-1039 limits assumed): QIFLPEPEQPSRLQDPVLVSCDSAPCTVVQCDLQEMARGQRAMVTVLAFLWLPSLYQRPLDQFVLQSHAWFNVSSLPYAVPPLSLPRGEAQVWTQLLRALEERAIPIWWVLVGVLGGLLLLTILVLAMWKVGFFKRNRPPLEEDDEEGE

`CCN(CC)CCCNC(=O)c1cnn(-c2nc(-c3cccc(C(F)(F)F)c3)c(Br)s2)c1C(F)(F)F` [1-[5-Bromo-4-(3-trifluoromethyl-phenyl)-thiazol-2-yl]-5-trifluoromethyl-1H-pyrazole-4-carboxylic acid (3-diethylamino-propyl)-amide]: the results for the IC50 in experiment [1] and in experiment [2] were 3.5 µM and 2.1 µM, respectively.
On to `CC(=O)Oc1ccccc1C(=O)O` [2-(acetyloxy)benzoic acid], for which the IC50 in experiment [1] is > 100 µM; in experiment [2] it was 5 µM.
In turn, `NCCNC(=O)c1cnn(-c2nc(-c3cccc(C(F)(F)F)c3)cs2)c1C(F)(F)F` [5-Trifluoromethyl-1-[4-(3-trifluoromethyl-phenyl)-thiazol-2-yl]-1H-pyrazole-4-carboxylic acid (2-amino-ethyl)-amide; hydrochloride] registered an IC50 in experiment [3] of 11.2 µM.
Regarding `NCCCNC(=O)c1cnn(-c2nc(-c3cccc(C(F)(F)F)c3)cs2)c1C(F)(F)F` [5-Trifluoromethyl-1-[4-(3-trifluoromethyl-phenyl)-thiazol-2-yl]-1H-pyrazole-4-carboxylic acid (3-amino-propyl)-amide; hydrochloride], the IC50 in experiment [1] came out at 3 µM; in experiment [2], 3.7 µM.
Turning to `CCN(CC)CCCNC(=O)c1cnn(-c2nc(-c3cccc(C(F)(F)F)c3)cs2)c1C(F)(F)F` [5-Trifluoromethyl-1-[4-(3-trifluoromethyl-phenyl)-thiazol-2-yl]-1H-pyrazole-4-carboxylic acid (3-diethylamino-propyl)-amide], the figures for the IC50 in experiment [1] and in experiment [2] were 2.5 µM and 0.4 µM, respectively.
For the compound `O=C(NCCCN1CCCCC1)c1cnn(-c2nc(-c3cccc(C(F)(F)F)c3)cs2)c1C(F)(F)F` [5-Trifluoromethyl-1-[4-(3-trifluoromethyl-phenyl)-thiazol-2-yl]-1H-pyrazole-4-carboxylic acid (3-piperidin-1-yl-propyl)-amide], the results for the IC50 in experiment [1] and in experiment [2] were 3 µM and 12 µM, respectively.
For `CCCNCCCNC(=O)c1cnn(-c2nc(-c3cccc(C(F)(F)F)c3)cs2)c1C(F)(F)F` [5-Trifluoromethyl-1-[4-(3-trifluoromethyl-phenyl)-thiazol-2-yl]-1H-pyrazole-4-carboxylic acid (3-propylamino-propyl)-amide], the IC50 was 3.5 µM in experiment [1] and 4.1 µM in experiment [2].
In the case of `NCCCCNC(=O)c1cnn(-c2nc(-c3cccc(C(F)(F)F)c3)cs2)c1C(F)(F)F` [5-Trifluoromethyl-1-[4-(3-trifluoromethyl-phenyl)-thiazol-2-yl]-1H-pyrazole-4-carboxylic acid (4-amino-butyl)-amide; hydrochloride], the IC50 was 0.1 µM in experiment [1] and 4.5 µM in experiment [2].
In experiment [2], `COc1ccc(CCNC(=O)C(CC(=O)O)NC(=O)CCCCCCCNC(=N)N)cc1` (stereo unspecified) [SC-47643] registered an IC50 of 2.4 µM.

The IC50 is the midpoint of a concentration-inhibition curve.
